Test results as given in patent publication US20130252987A1, “METHOD OF REGULATING PLASMA LIPOPROTEINS” (MCMASTER UNIVERSITY, priority 2010, published 2013).

Key:
HepG2 cells [1] = experiment: apoB and apolipoprotein expression and secretion, immunoprecipitation and Western blot; assay type: cell-based, human; settings: lactacystin 10 μM, 24 hours
Method: During experiments in which HepG2 cells were treated with human recombinant resistin (Calbiochem, UK) the media was changed to 1% FBS-containing DMEM. […] In separate experiments, cells were treated with the fatty acid, oleate (100 μM) (Sigma, ON) for 24 hours, with or without human resistin (50 ng/mL) for 24 hours. In other experiments, cells were treated with the 10 μM lactacystin (Cayman Chemical, Ann Arbor, Mich.) for 24 hours to assess intracellular proteosome-dependent apoB protein degradation.
Horseradish peroxidase-conjugated antibodies (BioRad, Hercules, Calif.) were used as secondary antibodies.
All of the experiments to follow were performed three times and representative results are shown. […] Immunoprecipitation on cell lysates and media, followed by Western blots to detect the cellular expression and secretion of human apoB protein were then performed. The constitutively expressed cellular proteins, beta-actin and albumin were used as internal immunoblot controls to confirm equal protein loading in the apoB immunoblots of cell lysates and media, respectively. […] Treatment with 25 ng/mL resistin further stimulated apoB secretion by approximately 250% compared with untreated cells (FIG. 1A).

[2] = tested on: RETN (human resistin gene); experiment: resistin siRNA transfection of HepG2 cells; assay type: cell-based; settings: 10 nM siRNA, 24 or 48 hours
Method: HepG2 cells were seeded 200,000 cells per well in a 6-well plate in 2300 uL of 10% FBS DMEM with antibiotics. Awaiting transfection, the cells were placed at 37° C. and 5% CO2. Next, 300 ng of siRNA against RETN (human resistin gene), with the sequence 5′[…] (SEQ ID NO: 5), purchased from Qiagen, MD, was diluted in 100 uL of serum free DMEM which yielded a final concentration of 10 nM once added to cells. 12 uL of HiPerfect Transfection reagent (Qiagen) was also added to the siRNA and mixed by pipetting. The siRNA mixture was allowed to form transfection complexes by incubation at room temperature for 7 minutes. The complexes were then added drop wise to the cells and incubated at 37° C. and 5% CO2 for 24 or 48 hours before harvest. Transfection efficiency was quantitatively measured by the fluorescently labeled scrambled negative control siRNA (Qiagen). siRNA knockdown efficiency was measured by positive control siGAPDH (Qigen) at the transcript and protein levels.

HepG2 cells [3] = experiment: cell viability, tryphan blue staining; assay type: cell-based, human; settings: 1.3 nM
Method: Cell viability was determined with 0.4% tryphan blue (Sigma-Aldrich, ON) staining and calculated using the following formula: % Cell Viability=(number of unstained (living) cells/Total number of cells)×100.
The next question was whether this amount of human resistin is toxic to hepatocytes. Tryphan blue staining of HepG2 cells upon 50 ng/mL of resistin treatment to determine cell viability was performed.

HepG2 cells [4] = experiment: real-time quantitative PCR of mRNA expression; assay type: cell-based, human; settings: CP-346086 1.3 nM, 24 hours
Method: Total RNA was isolated from cell lysates (RNeasy Mini Kit, Qiagen, Germantown, Md.) and used as a template for cDNA synthesis (QuantiTech Reverse Transcription Kit, Qiagen, Germantown, Md.). Quantitative real-time PCR was performed using an Applied Biosystems 7300 Real Time PCR system (Carlsbad, Calif.) according to the manufacturer's instructions and with the SYBR green master kit (Qiagen, Germantown, Md.). Primers for the real-time PCR internal control gene cyclophilin A (sense, 5′-[…]-3′ (SEQ ID NO:3); antisense, 5′-[…]-3′ (SEQ ID NO:4)) were synthesized (IDT, Coralville, Iowa). Primers for succinate degydrogenase (SDH) (another real-time PCR internal control gene), apoB, microsomal triglyceride transfer protein (MTP), Srebp1, Srebp2, acetyl-coA carboxylase (ACC), HMG-coA reductase, HMG-coA synthase, squalene synthase (SS), the LDL receptor, PCSK9, fatty acid synthase (FAS), […] (SCD), DGAT1 and DGAT2 were purchased (proprietary sequences not available) (Qiagen, Germantown, Md.). The values reported for each mRNA were corrected to the cyclophilin A and SDH mRNA values.
Total RNA was isolated from cell lysates (RNeasy Mini Kit, Qiagen, MD) and used as a template for cDNA synthesis (QuantiTech Reverse Transcription Kit, Qiagen, MD). Quantitative real-time PCR was performed using an Applied Biosystems 7300 Real-Time PCR system (Carlsbad, Calif.) according to the manufacturer's instructions and with the SYBR green kit (Qiagen, MD). Primers for the real-time PCR internal control gene cyclophilin A, as identified in Example 1, were synthesized (IDT, IA). Primers for succinate dehydrogenase (SDH) (another real-time PCR internal control gene), SREBP2, HMG-CoA reductase, the LDL receptor and PCSK9 were purchased (proprietary sequences not available) (Qiagen, MD). The values reported for each mRNA were corrected to the cyclophilin A and SDH mRNA values.

HepG2 cells [5] = experiment: immunoblotting for LDL receptor and PCSK9 in HepG2 cells
Method: Cells were propagated in 10% FBS-containing DMEM supplemented with 1% penicillin-streptomycin and 0.06% L-glutamine (584 mg/L) at 37° C., 5% CO2. During treatment experiments with human recombinant resistin (Calbiochem, UK) and/or lovastatin (Sigma, Mo.), the media was changed to 1% FBS-containing DMEM. All of the experiments to follow were performed at least three times and representative results are shown. Cells were stimulated with resistin at various doses (0, 10, 25, 50, and 100 ng/mL) for 24 hours or with a single dose at 50 ng/mL resistin. In other experiments, the microsomal triglyceride transfer protein (MTP) inhibitor, CP-346086, was administered at 1.3 nM, either alone or together with resistin (50 ng/mL) for 24 hours. Lovastatin was administered at 1 to 5 μM for 24 hours to stimulate the cells, either alone or in combination with resistin (50 ng/mL). Unless otherwise indicated, all experiments were performed in triplicate in three independent experiments.
Cell lysates collected with RIPA buffer (50 mM Tris, 150 mM sodium chloride, 1% NP-40, 12 mM sodium deoxycholate, 3.5 mM SDS, pH 7.4) and protease inhibitor cocktail (Roche Diagnostics, QC) were analyzed for human LDL receptor and PCSK9 as previously described (Rashid et al. Proc Nall Acad Sci U S A 2005; 102:5374-9). Equivalent amounts of total protein, determined by Bradford reaction was subjected to sodium dodecyl sulfate polyacrylamide gel electrophoresis (SDS-PAGE), transferred onto nitrocellulose membranes (BioRad, CA) and immunoblotted using antibodies against the LDL receptor (Fitzgerald International, CA) and PCSK9 (Cayman Chemicals, MI). Horseradish peroxidase-conjugated antibodies (BioRad, CA) were used as secondary antibodies. Immunoreactive bands were visualized with a chemiluminescence kit (PerkinElmer Life Sciences, MA). The blots were exposed to KODAK Biomax films, and the signal was quantified by densitometry using Quantity One version 4.6.7. software (Bio Rad, CA).
All of the experiments were performed at least three times and representative results are shown. Dose-response experiments were performed in HepG2 cells with 0, 10, 25, 50, 75 and 100 ng/mL of human resistin for 24 hours. Western blots were then performed on cell lysates to detect the cellular expression of LDL receptor protein.

[6] = CP-346086 1.3 nM with resistin 50 ng/mL, 24 hours

CC(=O)N[C@@H](CSC(=O)[C@]1([C@@H](O)C(C)C)NC(=O)[C@H](C)[C@@H]1O)C(=O)O [lactacystin, reference compound]
cellular expression and secretion of apoB (HepG2 cells [1]): increase

Resistin siRNA: siRNA against RETN (human resistin gene), sequence 5′CCCTAATATTTAGGGCAATAA (SEQ ID NO: 5), Qiagen (listed as DNA, chemistry not given here)
cellular LDL receptor levels [2]: very effective in increasing | cellular PCSK9 levels [2]: reduction | cellular protein levels of resistin [2]: very effective in reducing | expression of apoB [2]: reducing the expression

O=C(Nc1ccc2c(c1)CCN(Cc1ncn[nH]1)C2)c1ccccc1-c1ccc(C(F)(F)F)cc1 [CP-346086, reference compound]
cell viability (HepG2 cells [3]): did not reduce cell viability | HMG-coA reductase mRNA expression (HepG2 cells [4]): reduction | SREBP2 mRNA expression (HepG2 cells [4]): reduction | effect on LDL receptor protein levels observed with resistin treatment (HepG2 cells [5]; [6]): reversed the decline | effect on PCSK9 protein levels induced by resistin (HepG2 cells [5]; [6]): reversed the increase

CC[C@H](C)C(=O)O[C@H]1C[C@@H](C)C=C2C=C[C@H](C)[C@H](CC[C@@H]3C[C@@H](O)CC(=O)O3)[C@H]21 [lovastatin, reference compound]
hepatocyte LDL receptor expression (HepG2 cells [5]; lovastatin 5 μM): increase
